The source made the active and inactive calls.
How the values were obtained:
[1] = inhibition of ADAM10 peptide cleavage – biochemical, FRET peptide substrate, recombinant human ADAM10, selectivity assay for ADAM17 exosite inhibitor project, dose response (AID 743259);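 further: ADAM10 enzyme cleaving a FRET peptide substrate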
[2] = target: Disintegrin and metalloproteinase domain-containing protein 17 (Homo sapiens, UniProt P78536); assay: exosite inhibitors of ADAM17, dose response, biochemical (AID 743260)
Sequence of Disintegrin and metalloproteinase domain-containing protein 17 (P78536 whole entry, the tested form may be a part): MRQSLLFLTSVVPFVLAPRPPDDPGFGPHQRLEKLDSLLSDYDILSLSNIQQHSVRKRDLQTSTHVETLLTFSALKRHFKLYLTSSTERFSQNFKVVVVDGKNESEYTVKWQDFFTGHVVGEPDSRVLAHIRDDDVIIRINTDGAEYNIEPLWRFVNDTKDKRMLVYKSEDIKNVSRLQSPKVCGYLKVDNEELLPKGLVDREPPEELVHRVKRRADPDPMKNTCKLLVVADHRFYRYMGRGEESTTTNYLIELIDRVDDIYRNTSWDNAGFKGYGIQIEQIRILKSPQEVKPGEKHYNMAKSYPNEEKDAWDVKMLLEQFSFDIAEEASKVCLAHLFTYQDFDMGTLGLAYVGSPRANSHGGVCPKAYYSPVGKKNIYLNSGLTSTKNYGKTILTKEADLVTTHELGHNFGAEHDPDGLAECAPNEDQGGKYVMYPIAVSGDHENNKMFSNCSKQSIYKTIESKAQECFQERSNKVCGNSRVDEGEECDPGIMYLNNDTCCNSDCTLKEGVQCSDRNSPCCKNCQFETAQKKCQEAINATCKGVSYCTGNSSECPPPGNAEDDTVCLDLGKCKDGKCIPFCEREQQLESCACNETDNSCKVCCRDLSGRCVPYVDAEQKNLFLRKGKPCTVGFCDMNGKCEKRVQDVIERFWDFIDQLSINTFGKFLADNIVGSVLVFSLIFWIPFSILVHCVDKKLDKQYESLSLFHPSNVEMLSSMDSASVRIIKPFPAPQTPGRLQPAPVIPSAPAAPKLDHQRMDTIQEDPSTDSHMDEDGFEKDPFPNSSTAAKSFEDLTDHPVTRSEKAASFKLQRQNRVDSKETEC

[3] = viability loss in CEM21 cells – cell-based, CellTiter-Glo luminescence, cherry-picked, cytotoxicity control for viral fusion inhibitor project, dose response (AID 652042); format: functional;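 further: potency for signal decrease meaning cytotoxicity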
[4] = blockers of HIV-1 ZM109 envelope-driven cell-cell fusion – HeLa effector, CEM target cells, luciferase, cherry-pick, dose response (AID 652058); format: functional, cell-based;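 further: luciferase signal from HIV-1 Env mediated cell-cell fusion of effector and target cells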
[5] = target: T1, COUP transcription factor 2 (Homo sapiens, UniProt P24468); assay: Luminescence-based cell-based high throughput dose response assay to identify inhibitors of COUP-TFII (NR2F2).; format: functional;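 further: HEK293 cells transiently cotransfected with COUP-TFII expression vector and reporter; luciferase reporter luminescence driven by COUP-TFII from the pX2-168 reporter plasmid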
T1 sequence (P24468 whole entry): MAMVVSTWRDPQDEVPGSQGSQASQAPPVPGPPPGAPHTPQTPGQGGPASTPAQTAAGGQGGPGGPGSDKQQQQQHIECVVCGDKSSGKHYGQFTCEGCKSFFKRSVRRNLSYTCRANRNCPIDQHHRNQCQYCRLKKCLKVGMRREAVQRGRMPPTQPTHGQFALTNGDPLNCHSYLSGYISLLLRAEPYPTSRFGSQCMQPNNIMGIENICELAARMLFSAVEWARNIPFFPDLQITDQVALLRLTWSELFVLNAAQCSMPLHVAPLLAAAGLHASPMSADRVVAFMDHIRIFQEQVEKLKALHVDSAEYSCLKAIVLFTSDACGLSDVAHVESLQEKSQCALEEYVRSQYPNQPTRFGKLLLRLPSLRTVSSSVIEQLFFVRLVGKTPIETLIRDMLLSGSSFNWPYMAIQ

[6] = HIV-1 AD8 envelope cell-cell fusion blockers – cherry-pick, dose response (AID 652062); format: functional, cell-based;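 further: luciferase signal from cell-cell fusion driven by HIV-1 clade B AD8 Env; potency is for inhibitors of fusion seen as a drop in luminescence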
[7] = target: Protein Tat (Human immunodeficiency virus type 1 group M subtype B (isolate HXB2)(HIV-1), UniProt P04608); format: functional;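 further: tat binding to TAR RNA read out by fluorescence polarization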
Sequence of Protein Tat (P04608 whole entry): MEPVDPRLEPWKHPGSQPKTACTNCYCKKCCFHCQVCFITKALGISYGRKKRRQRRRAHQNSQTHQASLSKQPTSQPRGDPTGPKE

[8] = toxicity to human HepG2 hepatoma cells – cell-based, plate reader, dry powder samples, cytotoxicity control, dose response (AID 1159569); format: functional;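 further: inhibitor potency with signal falling toward the positive control level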
[9] = growth inhibition of yeast DHODH-expressing 3D7 parasites – SYBR Green, dry powder samples, dose response (AID 1159570); format: functional, cell-based;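 further: parasite growth measured after 72 hours of compound exposure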
[10] = growth inhibition of PfATP4-mutant resistant parasites – NITD609-resistant line, SYBR Green, dry powder, dose response (AID 1159571); format: functional, cell-based;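 further: parasites synchronized at ring stage by sorbitol before testing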
[11] = P. falciparum Dd2 growth inhibitors, dose response, SYBR Green, cherry-picked samples (AID 1159567); format: functional, cell-based
[12] = Dd2 malaria parasite growth inhibition potency – SYBR Green, dry powder samples, dose response (AID 1159566); format: functional, cell-based;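 further: potency for growth inhibition with lower SYBR green DNA signal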
[13] = YAP1 overexpression rescue of CTGF inhibition – DLD1 cells, RT-qPCR, cherry-pick, mechanism study for YAP1 pathway inhibitor project, dose response (AID 1053127); format: functional, cell-based; settings: DLD-1
[14] = target: T2, Oxysterols receptor LXR-beta (Homo sapiens, UniProt P55055); format: functional, cell-based
T2 sequence (P55055 whole entry): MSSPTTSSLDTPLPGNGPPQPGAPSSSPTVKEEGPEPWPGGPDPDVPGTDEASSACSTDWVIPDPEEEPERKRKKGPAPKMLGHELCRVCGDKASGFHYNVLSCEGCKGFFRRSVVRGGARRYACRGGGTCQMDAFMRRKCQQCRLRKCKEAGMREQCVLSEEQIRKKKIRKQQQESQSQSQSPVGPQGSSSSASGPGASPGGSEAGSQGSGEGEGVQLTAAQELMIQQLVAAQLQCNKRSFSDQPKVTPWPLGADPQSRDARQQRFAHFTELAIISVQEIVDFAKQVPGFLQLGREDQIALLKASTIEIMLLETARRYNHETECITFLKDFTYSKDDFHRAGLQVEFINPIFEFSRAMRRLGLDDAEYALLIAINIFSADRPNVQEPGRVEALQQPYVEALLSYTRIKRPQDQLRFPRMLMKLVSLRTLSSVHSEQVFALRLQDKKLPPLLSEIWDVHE

[15] = cells
[16] = target: T3, Protein skinhead-1 (Caenorhabditis elegans, UniProt P34707); format: functional
T3 sequence (P34707 whole entry): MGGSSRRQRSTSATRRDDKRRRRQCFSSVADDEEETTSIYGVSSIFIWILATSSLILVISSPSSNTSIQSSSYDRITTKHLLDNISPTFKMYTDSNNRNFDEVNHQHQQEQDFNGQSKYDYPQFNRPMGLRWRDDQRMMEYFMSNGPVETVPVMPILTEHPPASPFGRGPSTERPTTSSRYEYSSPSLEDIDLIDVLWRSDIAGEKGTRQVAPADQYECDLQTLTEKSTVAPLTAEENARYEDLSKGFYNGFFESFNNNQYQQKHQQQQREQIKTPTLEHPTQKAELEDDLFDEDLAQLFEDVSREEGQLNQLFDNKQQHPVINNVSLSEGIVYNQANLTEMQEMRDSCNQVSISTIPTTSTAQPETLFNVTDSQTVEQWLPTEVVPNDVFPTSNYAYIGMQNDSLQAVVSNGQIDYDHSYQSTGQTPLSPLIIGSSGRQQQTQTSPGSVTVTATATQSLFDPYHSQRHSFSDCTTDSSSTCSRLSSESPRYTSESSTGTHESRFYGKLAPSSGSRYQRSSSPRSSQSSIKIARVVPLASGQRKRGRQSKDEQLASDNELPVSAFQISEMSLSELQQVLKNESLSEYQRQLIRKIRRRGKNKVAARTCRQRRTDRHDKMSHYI

[17] = target: T2, Oxysterols receptor LXR-beta; format: functional, cell-based; remark: listed apart in the source
[18] = cells; settings: A549
[19] = target: Paired box protein Pax-8 (Homo sapiens, UniProt Q06710); assay: PAX8 transcriptional activity inhibition in RMG-I – RMG-I cells, luciferase, cherry-pick, dose response (AID 687027); format: functional, cell-based;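 further: luciferase reporter driven by Pax8 target thyroperoxidase promoter measured by SteadyGlo luminescence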
Sequence of Paired box protein Pax-8 (Q06710 whole entry): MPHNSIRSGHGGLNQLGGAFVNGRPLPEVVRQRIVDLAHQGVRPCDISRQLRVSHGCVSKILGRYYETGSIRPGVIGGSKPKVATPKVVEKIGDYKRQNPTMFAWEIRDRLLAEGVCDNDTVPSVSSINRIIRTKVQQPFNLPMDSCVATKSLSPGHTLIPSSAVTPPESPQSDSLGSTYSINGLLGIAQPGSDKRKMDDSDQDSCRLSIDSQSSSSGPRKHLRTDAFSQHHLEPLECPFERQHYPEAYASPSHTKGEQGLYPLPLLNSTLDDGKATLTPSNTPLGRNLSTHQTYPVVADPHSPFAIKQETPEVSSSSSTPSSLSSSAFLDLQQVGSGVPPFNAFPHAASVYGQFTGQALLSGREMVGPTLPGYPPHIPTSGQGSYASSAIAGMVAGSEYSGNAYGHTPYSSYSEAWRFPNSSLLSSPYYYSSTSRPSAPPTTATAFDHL

[20] = inhibitors acting on PAX2 in cells – cell-based, plate reader, dry powder samples, selectivity assay for PAX8 inhibitor project, dose response (AID 743048); format: functional;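 further: HEK293 cells carrying a WT1 promoter luciferase reporter driven by expressed Pax2; potency is for inhibition of Pax2 driven reporter signal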
[21] = COV434 cell viability loss – plate reader, dry powder, SA7, cytotoxicity control for PAX8 inhibitor project, dose response (AID 743145); format: functional, cell-based
[22] = PAX5 cellular inhibition readout – cell-based, plate reader, dry powder samples, selectivity assay for PAX8 inhibitor project, dose response (AID 743047); format: functional;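 further: HEK293 cells carrying a Pax5 driven CD19 promoter luciferase reporter; potency of inhibitors that lower reporter luminescence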
[23] = PAX8-dependent cell viability loss – plate reader, dry powder, dose response (AID 743049); format: functional, cell-based
[24] = Luminescence Cell-Based Dose Confirmation HTS to Identify Activators of 5'UTR Stem-Loop Driven Alpha-Synuclein mRNA Translation in H4 Neuroglioblastoma Cells. [Related pubchem assays: 1829 (Project Summary), 1814 (Primary HTS)]; format: functional
[25] = system: H4; assay: Luminescence Cell-Based Dose Response HTS to Identify Activators of 5'UTR Stem-Loop Driven Prion Protein mRNA Translation in H4 Neuroglioblastoma Cells. [Related pubchem assays: 1829 (Project Summary), 1814 (Primary HTS)]; format: functional; settings: Homo sapiens
[26] = Luminescence Cell-Based Dose Response HTS to Identify Activators of Luciferase Translation or Activity in H4 […] Cells. [Related pubchem assays: 1829 (Project Summary), 1814 (Primary HTS)]; format: functional
[27] = viability loss in THP-1 monocytes – THP-1 cells, cytotoxicity control for Vif-APOBEC3G degradation inhibitor project, dose response (AID 1117359); format: functional; settings: THP-1
[28] = blockade of melanocortin 4 receptor signaling – cell-based, plate reader, cherry pick, counter-screen for LGR2 antagonist project, dose response (AID 743444); format: functional;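 further: transfected HEK 293 cells stimulated with alpha-MSH peptide; potency of inhibitors of the alpha-MSH evoked signal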
[29] = A549 cell cytotoxicity, dose response, cytotoxicity control, plate reader, cherry-pick, antagonist series (AID 743412); format: functional, cell-based
[30] = blockers of bursicon-stimulated LGR2 cAMP reporter – cell-based, HEK293, CRE-luciferase reporter, cherry pick, set 2, dose response (AID 743343); format: functional;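 further: transfected cells were stimulated with diluted bursicon conditioned medium after compound addition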
[31] = viability loss in HEK293 cells – cell-based, plate reader, cherry-picked samples, cytotoxicity control, dose response (AID 743446); format: functional
[32] = system: H9c2; assay: cells; format: functional, cell-based; settings: Rattus norvegicus, H9c2, Myocardium;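 further: confirmatory concentration-response retest of ultra-high-throughput screening hits for modulation of myocardial damage; cell death induced by hydrogen peroxide oxidative stress; compound pretreatment for 60 min then peroxide exposure for 2 h; potency is for protecting the cells against peroxide damage rather than for killing them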
[33] = toxicity to human hepatoma HepG2 cells – cell-based, cherry-picked samples, cytotoxicity control, dose response (AID 1159577); format: functional
[34] = general mammalian cell viability loss – activator set, cherry-pick, cytotoxicity control for miR-122 modulator project, dose response (AID 720690); format: functional, cell-based;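 further: HEK293T human cells scored for general mammalian cytotoxicity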
[35] = target: T4, CAAX prenyl protease 2 (Saccharomyces cerevisiae S288c, UniProt Q03530); format: biochemical
T4 sequence (Q03530 whole entry): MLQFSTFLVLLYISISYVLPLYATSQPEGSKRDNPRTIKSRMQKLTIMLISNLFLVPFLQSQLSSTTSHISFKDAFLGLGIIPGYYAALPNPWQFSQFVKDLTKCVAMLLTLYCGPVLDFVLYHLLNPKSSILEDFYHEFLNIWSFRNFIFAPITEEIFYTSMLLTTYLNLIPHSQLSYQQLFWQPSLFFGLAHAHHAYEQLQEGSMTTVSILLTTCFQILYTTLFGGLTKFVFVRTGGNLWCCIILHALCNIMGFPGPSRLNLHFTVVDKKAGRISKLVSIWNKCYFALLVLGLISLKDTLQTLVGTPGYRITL

[36] = viability loss in HepG2 liver cells – cell-based, ATP luminescence, cherry-pick, set 6, cytotoxicity control, dose response (AID 1053125); format: functional
[37] = target: T5, Nuclear receptor subfamily 0 group B member 1 (Homo sapiens, UniProt P51843); format: functional, cell-based;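 further: HEK293T cells transfected with SF-1 and DAX-1 plus StAR promoter luciferase reporter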
T5 sequence (P51843 whole entry): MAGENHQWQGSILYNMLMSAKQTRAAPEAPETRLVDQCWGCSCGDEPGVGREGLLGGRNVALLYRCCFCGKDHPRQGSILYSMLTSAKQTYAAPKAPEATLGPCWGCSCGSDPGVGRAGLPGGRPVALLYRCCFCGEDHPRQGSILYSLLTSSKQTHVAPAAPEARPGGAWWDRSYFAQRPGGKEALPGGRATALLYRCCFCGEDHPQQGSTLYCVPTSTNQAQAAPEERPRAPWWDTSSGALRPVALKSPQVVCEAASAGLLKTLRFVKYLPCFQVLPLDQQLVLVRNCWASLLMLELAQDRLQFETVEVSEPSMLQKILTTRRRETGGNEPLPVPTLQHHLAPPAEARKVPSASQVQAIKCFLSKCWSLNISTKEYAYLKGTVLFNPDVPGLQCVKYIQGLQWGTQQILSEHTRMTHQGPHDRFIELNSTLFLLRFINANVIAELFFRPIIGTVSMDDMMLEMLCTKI

[38] = target: T6, Carboxy-terminal domain RNA polymerase II polypeptide A small phosphatase 1 (Homo sapiens, UniProt Q9GZU7); assay: CTDSP1 inhibitors, concentration-response, biochemical, absorbance readout, ultra-high-throughput screen actives (AID 540297); format: functional
T6 sequence (Q9GZU7 whole entry): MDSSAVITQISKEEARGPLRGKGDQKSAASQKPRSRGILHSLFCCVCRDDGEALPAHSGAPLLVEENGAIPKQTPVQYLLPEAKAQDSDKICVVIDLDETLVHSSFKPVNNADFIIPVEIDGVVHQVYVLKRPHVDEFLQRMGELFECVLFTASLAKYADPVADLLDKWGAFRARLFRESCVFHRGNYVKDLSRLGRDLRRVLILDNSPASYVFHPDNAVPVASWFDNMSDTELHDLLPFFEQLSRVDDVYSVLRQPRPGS

[39] = cells; format: functional, cell-based

COc1ccc(S(=O)(=O)Nc2ccc(Nc3ccccc3)cc2)cc1
IC50 [1]: 12 µM (inactive)
IC50 [2]: > 69.5 µM (inactive)

Cc1ccc(Cn2ncc3c(N4CCN(Cc5ccc(Cl)cc5)CC4)ncnc32)cc1
AC50 [3]: 52 µM (active)
AC50 [4]: 0.606 µM (active)
IC50 [5]: 10.6 µM (inactive)
AC50 [6]: 3.86 µM (active)

Cc1cc(C(=O)CSc2nnc(-c3ccccc3)n2Cc2ccc3c(c2)OCO3)c(C)n1C
IC50 [7]: > 100 µM (active)

C[C@@H]1CN([C@@H](C)CO)C(=O)c2ccccc2-c2ccccc2CO[C@H]1CN(C)C(=O)Nc1cccc(C(F)(F)F)c1
AC50 [8]: > 100 µM (inactive)
AC50 [9]: 0.779 µM (active)
AC50 [10]: 2.38 µM (active)
AC50 [11]: 1.55 µM (active)
AC50 [12]: 1.03 µM (active)
AC50 [13]: 8.76 µM (active)

O=C(/C=C/Nc1ccc(F)c(Cl)c1)c1ccco1
EC50 [14]: > 67.5 µM (inactive)
EC50 [15]: > 67.5 µM (inactive)
IC50 [16]: 25.2 µM (active)

c1ccc(CNC2=Nc3ccccc3CS2)nc1
EC50 [17]: > 67.5 µM (inactive)

COc1ccc(C2CC(c3ccccc3)=NN2c2ccc(C(N)=O)cc2)cc1 (centres undefined)
AC50 [18]: 39.1 µM (active)

C[C@H](CO)N1C[C@H](C)[C@@H](CN(C)S(=O)(=O)c2ccc(Cl)cc2)OCCCC[C@H](C)Oc2ccc(NS(=O)(=O)c3ccccc3)cc2C1=O
AC50 [19]: 6.52 µM (active)
AC50 [20]: 23.7 µM (active)
AC50 [21]: 27.6 µM (active)
AC50 [22]: 26.3 µM (active)
AC50 [23]: 14 µM (active)

CC1=CN2C(=N)/C(=C/c3ccco3)C(=O)N=C2S1
EC50 [24]: 5.22 µM (active)
EC50 [17]: > 67.5 µM (inactive)
EC50 [25]: 1.63 µM (active)
EC50 [26]: 6.38 µM (active)

COc1ccc(Nc2ncc(F)c(N3CCOCC3)n2)cc1
CC50 [27]: > 40 µM (active)
AC50 [28]: 10.2 µM (active)
AC50 [29]: > 52 µM (inactive)
AC50 [30]: 18 µM (active)
AC50 [31]: > 52 µM (inactive)

CCOc1ccc2nc(O)c(CN(Cc3nnnn3Cc3ccco3)C3CCCCC3)cc2c1
CC50 [27]: > 40 µM (active)
IC50 [32]: 25.5 µM (active)

CN(C)CC(=O)N1CCCCN2[C@@H](CO)[C@@H](c3ccc(/C=C/c4ccccc4)cc3)[C@@H]2C1
AC50 [33]: 8.82 µM (active)
AC50 [11]: 1.14 µM (active)
AC50 [34]: 23.6 µM (active)

CCOC(=O)c1cc2c(=O)n3cccc(C)c3nc2n(CC(C)C)/c1=N/C(=O)c1ccco1
AC50 [35]: 14 µM (active)
AC50 [36]: > 52 µM (inactive)

O=C(CCN1C(=O)/C(=C\C=C\c2ccccc2)SC1=S)Nc1cccc(C(=O)O)c1
IC50 [37]: > 67.5 µM (inactive)
IC50 [38]: 4.8 µM (active)
IC50 [39]: > 67.5 µM (inactive)

O=c1oc2ccccc2cc1-c1nc2c(s1)CCCC2
IC50 [37]: > 0.278 µM (active)
IC50 [39]: > 67.5 µM (inactive)
